Experimental data: patent publication US20200016134A1, “COMPOSITIONS AND METHODS FOR TREATING SUBSTANCE ABUSE DISORDERS” (EMBERA NEUROTHERAPEUTICS, INC., priority 2016, published 2020)

Experiments:
adult male Wistar rats [1] = assay: Intravenous cocaine self-administration under a multiple, alternating schedule of food reinforcement and cocaine self-administration; format: in vivo, rat; settings: for cocaine self-administration and reinstatement of extinguished cocaine seeking: pretreatment with the single drug, summary of the studies
Procedure: Adult male Wistar rats were trained under a multiple, alternating schedule of cocaine and food self-administration. This schedule consisted of alternating periods of cocaine access and food reinforcement. In some instances, as described further below, three doses of cocaine (0.125, 0.25, or 0.50 mg/kg/infusion) were tested. Rats were also periodically trained with saline substitution (cocaine extinction) and food extinction during the same session.
More specifically, adult male Wistar rats were implanted with chronic jugular catheters. Following recovery from surgery, the rats were trained to respond under a multiple, alternating schedule of food reinforcement and cocaine self-administration. Food-maintained responding was used to control for the non-specific motor effects of the various treatments. During the food component of the schedule, the stimulus light located above the food response lever was illuminated to indicate the availability of food reinforcement. […] A 25-second timeout followed the delivery of each food pellet. During this timeout, the stimulus light was darkened and responses on the food lever were counted but had no scheduled consequences. Responding on the other (cocaine) lever during the food component also had no scheduled consequences. […] Following 15 minutes of access to food, all stimulus lights in the chamber were darkened for a 1-minute timeout. Following the timeout, the stimulus light above the cocaine response lever was illuminated to indicate the availability of cocaine (0.125, 0.25, or 0.5 mg/kg/infusion). […] A 20-second timeout period followed each infusion. […] After 15 minutes of access to cocaine and a 1-minute timeout, the rats were again allowed 15 minutes access to the food component of the schedule. Access to food and cocaine alternated in this manner every 15 minutes during the two hour behavioral sessions so that each rat was exposed to food and cocaine for four 15-minute periods each. Each behavioral session began with 15 minutes access to either food or cocaine, and this alternated daily. Stable baselines of responding were established when the total number of cocaine and food presentations, as well as the number of presentations during each of the four exposures each session, varied less than 10% for three consecutive sessions. At least three different doses of cocaine (e.g., 0.125, 0.25, and 0.5 mg/kg/infusion) were tested. Rats were first trained to self-administer 0.25 mg/kg/infusion, which was the standard dose of cocaine used. When responding stabilized, the dose was changed to 0.125 or 0.5 mg/kg/infusion as appropriate.
Once stable baselines of responding were obtained, dose-response curves for the various compounds were individually generated for each rat. Rats were treated with each dose at least twice with a minimum of two days of baseline cocaine self-administration interspersed between each test. Each group of rats was tested with only two of the test compounds to minimize potential carryover effects.

rats = settings: Goeders et al., cited from earlier work
[2] = Phase I single- and multiple-rising dose study: plasma pharmacokinetics; settings: human, in vivo
Procedure: METHODS: This was a single- and multiple-rising dose study. Healthy volunteers who smoke, aged 18-65, received a single AM dose on Day 1, BID dosing on Days 3-9 and a single AM dose on Day 10. Three sequential dose cohorts of 8 subjects (6 drug, 2 placebo) received the following doses of MET and OX, respectively: 270 and 12 mg; 540 and 24 mg; and 720 and 24 mg. Total daily doses were double these amounts on BID dosing days. Primary outcomes were safety and pharmacokinetics of MET, its active metabolite (metyrapol), and OX. Safety measures included vital signs, ECGs an standard safety labs. Cortisol and other HPA axis parameters were monitored closely throughout the study.

male Wistar rats = assay: Forced Swim Test (FST), animal model of depression
adult male Wistar rats [3] = assay: Cue-induced reinstatement of extinguished cocaine seeking (model of relapse); format: in vivo, rat; settings: FIG. 11; chronic metyrapone 50 mg/kg ip, once per day for 14 days
Procedure: Training to self-administer cocaine: In one model, rats were exposed to alternating 15-minute periods of access to cocaine self-administration and food reinforcement. Food was used to control for potential nonspecific, ataxis effects of the drugs and combinations. […] In this model, rats are trained to self-administer cocaine and the ability of conditioned cues in the environment to reinstate extinguished responding is assessed and taken as a measure of relapse.
Cue-induced Reinstatement of Extinguished Cocaine Seeking: The experiments described herein were designed to investigate whether or not drug combinations identified as effective in reducing cocaine self-administration would also block the ability of conditioned cues to reinstate extinguished cocaine-seeking behavior. Adult male Wistar rats were implanted with chronic jugular catheters and trained to self-administer cocaine (0.25 mg/kg/infusion) by pressing one of the response levers in the experimental chamber (i.e., the “active” or “cocaine” lever) under a fixed-ratio four (FR4) schedule of reinforcement during daily 2-hour sessions conducted 5 days per week. At the start of each session, both levers were extended into the chamber and the stimulus light above the active lever was illuminated to indicate the availability of cocaine. […] A 20-second timeout period followed each infusion. […]

[4] = FIG. 8, high dose alone: muscimol 1-4 mg/kg ip, CP-154,526 10-80 mg/kg ip
[5] = FIG. 8, low, ineffective doses alone: muscimol 0.5-2.0 mg/kg ip, CP-154,526 5-25 mg/kg ip
[6] = FIG. 3, low, ineffective doses alone: alprazolam 0.2-2 mg/kg ip, ketoconazole 5-75 mg/kg ip
[7] = FIG. 7, high dose alone: metyrapone 25-175 mg/kg ip, alprazolam 1-5 mg/kg ip
[8] = FIG. 7, low, ineffective doses alone: metyrapone 25-50 mg/kg ip, alprazolam 0.5-2 mg/kg ip
[9] = FIG. 9, high dose alone: muscimol 1-4 mg/kg ip, metyrapone 25-175 mg/kg ip

Row | SMILES | cocaine self-administration (infusions, percentage of baseline) (adult male Wistar rats [1]; [4]) | cocaine self-administration (infusions, percentage of baseline) (adult male Wistar rats [1]; [5]) | cocaine self-administration and reinstatement of extinguished cocaine seeking (adult male Wistar rats [1]; rats) | cocaine self-administration (number of cocaine infusions) (adult male Wistar rats [1]; [6]) | cocaine self-administration (number of cocaine infusions) (adult male Wistar rats [1]; [7]) | cocaine self-administration (number of cocaine infusions) (adult male Wistar rats [1]; [8]) | intravenous cocaine self-administration (rats; pretreatment) | cocaine self-administration (infusions, percentage of baseline) (adult male Wistar rats [1]; [9]) | further results
1 | CCCCN(CC)c1nc(C)nc2c1c(C)cn2-c1c(C)cc(C)cc1C [CP-154,526] | reduced cocaine self-administration | did not significantly affect cocaine self-administration | decrease cocaine self-administration and the reinstatement of extinguished cocaine seeking | – | – | – | – | – | cocaine self-administration (infusions, percentage of baseline) (adult male Wistar rats [1]; FIG. 6, high dose alone: CP-154,526 10-80 mg/kg ip, oxazepam 5-25 mg/kg ip): reduced cocaine self-administration; cocaine self-administration (infusions, percentage of baseline) (adult male Wistar rats [1]; FIG. 6, low, ineffective doses alone: CP-154,526 5-25 mg/kg ip, oxazepam 5-25 mg/kg ip): did not significantly affect cocaine self-administration
2 | Cc1nnc2n1-c1ccc(Cl)cc1C(c1ccccc1)=NC2 [alprazolam] | – | – | decrease cocaine self-administration and the reinstatement of extinguished cocaine seeking | did not significantly affect cocaine self-administration | reduced cocaine self-administration | did not significantly affect cocaine self-administration | – | – | responding maintained by food and cocaine (rats; multiple schedule of iv cocaine and food reinforcement, initial testing, 1993): reduced responding maintained by both food and cocaine
3 | CC(=O)N1CCN(c2ccc(OCC3COC(Cn4ccnc4)(c4ccc(Cl)cc4Cl)O3)cc2)CC1 (stereo not drawn) [ketoconazole] | – | – | decrease cocaine self-administration and the reinstatement of extinguished cocaine seeking | did not significantly affect cocaine self-administration | – | – | reduced cocaine self-administration | – | cocaine- or food-maintained responding (adult male Wistar rats [1]; ketoconazole 12.5 mg/kg tested alone): no effect; cocaine self-administration (number of cocaine infusions) (adult male Wistar rats [1]; rat, in vivo): did not significantly affect cocaine self-administration; minimally effective dose (reduces cocaine self-administration by at least 50% without affecting food-maintained responding) (adult male Wistar rats [1]; rats): 25 mg/kg
4 | CC(C)(C(=O)c1cccnc1)c1cccnc1 [metyrapone] | – | – | decrease cocaine self-administration and the reinstatement of extinguished cocaine seeking | – | reduced cocaine self-administration | did not significantly affect cocaine self-administration | significant dose-related decreases | reduced cocaine self-administration | t1/2, mean [2]: 1.887 h; cocaine self-administration (number of cocaine infusions) (adult male Wistar rats [1]; FIG. 1A, high dose alone: metyrapone 25-175 mg/kg ip, oxazepam 5-80 mg/kg ip): reduced cocaine self-administration; immobility time (male Wistar rats; chronic administration, single drug, Met50 group (metyrapone 50 mg/kg)): showed a lessening of immobility time; group means of immobility compared with vehicle (tolerance) (male Wistar rats; chronically treated groups that received only Ox or Met): equal to or exceeded the vehicle; cocaine seeking (responding on the active lever during reinstatement) (adult male Wistar rats [3]): reduced cocaine seeking to levels seen when only saline was delivered; plasma corticosterone (rats; pretreatment, 1996): significant dose-related decreases
5 | NCc1cc(=O)[nH]o1 [muscimol] | reduced cocaine self-administration | did not significantly affect cocaine self-administration | – | – | – | – | – | reduced cocaine self-administration | –
